From patent US7452688B2, “Transformed cell with enhanced sensitivity to antifungal compound and use thereof” (Sumitomo Chemical Company, Limited, priority 2002, dated 2008)

Key:
Format in all cases: cell-based, Saccharomyces cerevisiae
[1] = system: transformed budding yeast AH22-HIK1; experiment: Antifungal compound sensitivity test, transformed budding yeast AH22-HIK1 (Example 9); conditions: 30° C. 23 hours
Protocol: The transformed budding yeast AH22-HIK1 prepared in Example 8 was cultured while shaking at 30° C. for 24 hours in a Glu-Leu medium. As a control, the AH22 strain was similarly cultured while shaking at 30° C. for 24 hours in a Glu medium. The absorbance at 600 nm of a cell suspension of each of the grown transformed budding yeasts was measured, and a cell suspension diluted with each medium to the absorbance of 0.1 was prepared. Further, a cell suspension in which the aforementioned cell suspension of the transformed budding yeast AH22-HIK1 was diluted 50-fold with a Glu-Leu medium, and a cell suspension in which the aforementioned cell suspension of AH22 strain was diluted 50-fold with a Glu medium were prepared. A suspension in which each of compounds (1) to (3) was dissolved in dimethylsulfoxide (DMSO) to the concentration of 200 ppm, a solution in which each of Compounds (4) to (5) was dissolved in dimethylsulfoxide (DMSO) to the concentration of 600 ppm, and a solution in which each of Compounds (6) and (7) was dissolved in dimethylsulfoxide (DMSO) to the concentration of 20 ppm were prepared, and two microplates were prepared in which each 1.0 μL per well of the Compound solution and DMSO as a control were dispensed into two wells. In one microplate among them, each 100 μL of a cell suspension of the transformed budding yeast AH22-hiki which had been prepared by dilution as described above was dispensed, and cultured by allowing to stand at 30° C. for 23 hours. In another microplate, each 100 μL of the cell suspensions of control yeast AH22 strain which had been prepared by dilution as described above was dispensed, and cultured by allowing to stand at 30° C. for 27 hours. After culturing, the absorbance at 600 nm of each well was measured with a microplate reader.
(§1) Degree of growths of both of the transformed budding yeasts cultured in the presence of Compounds (1) to (7) and budding yeast as a control therefor are shown in Table 3. Degrees of growths of both of the transformed budding yeasts and budding yeast as a control thereof or are shown by a relative value in percentage, letting the absorbance of 600 nm at the concentration of the Compound of 0 ppm to be […]. It was confirmed that an inhibiting degree of growth of TM182-HIK1 by each test substance was greater than an inhibiting degree of growth of AH22-HIK1 by each test substance, and the TM182-HIK1 was a transformed cell with the enhanced sensitivity to an antifungal-compound as compared with AH22-HIK1.

[2] = system: transformed budding yeast TM182-HIK1; experiment: Antifungal compound sensitivity test of transformed budding yeast TM182-HIK1 (Example 9); conditions: 30° C. 27 hours; for Degree of growth of budding yeast (%) TM182-HIK1 Gal-Ura-Leu medium: control medium
Protocol: Similarly, the transformed budding yeast TM182-HIK1 prepared in Example 8 was cultured at 30° C. for 24 hours in a Glu-Ura-Leu medium. The absorbance at 600 nm of a cell suspension of the grown transformed budding yeast was measured, and a cell suspension diluted with each medium to the absorbance of 0.1 was prepared. Further, a cell suspension in which the aforementioned cell suspension of the transformed budding yeast TM182-HIK1 was diluted 50-fold with a Glu-Ura-Leu medium and, as a control, a cell suspension in which the suspension was diluted 50-fold with a […] prepared. A suspension in which each of Compounds (1) to (3) was dissolved in dimethylsulfoxide (DMSO) to the concentration of 200 ppm, a solution in which each of Compounds (4) and (5) was dissolved in dimethylsulfoxide (DMSO) to the concentration of 600 ppm, and a solution in which each of Compounds (6) and (7) was dissolved in dimethylsulfoxide (DMSO) to the concentration of 20 ppm were prepared, and two microplates were prepared in which each 1.0 μL per well of the Compound DMSO solution and DMSO as a control were dispensed into two wells. In one microplate among them, each 100 μL of cell suspensions of the transformed budding yeast TM182-HIK1 which had been prepared by dilution with a Glu-Ura-Leu medium as described above was dispensed, and cultured by allowing to stand at 30° C. for 27 hours. In another microplate; as described above, as a control, each 100 μL of cell suspensions of the transformed budding yeast TM182-HIK1 which had been prepared by dilution with a Gal-Ura-Leu medium was dispensed, and cultured by allowing to stand at 30° C. for 27 hours. After culturing, the absorbance at 600 nm of each well was measured with a microplate reader.
as §1

AH22 strain = experiment: Antifungal compound sensitivity test, control yeast AH22 strain (Example 16); conditions: 30° C. 24.5 hours, relative value in percentage
Protocol: The transformed budding yeast AH22-StOS1 prepared in Example 15 was cultured while shaking at 30° C. for 18 hours in a Glu-Leu medium. As a control, the AH22 strain was similarly cultured while shaking at 30° C. for 18 hours in a Glu medium. The absorbance at 600 nm of each grown transformed budding yeast in a cell suspension was measured, and cell suspension diluted with sterilized distilled water to the absorbance of 0.1 was prepared. Further, a cell suspension in which the aforementioned cell suspension of the transformed budding yeast AH22-StOS1 was diluted 50-fold with a Glu-Leu medium, and a cell suspension in which the aforementioned cell suspension of the AH22 strain was diluted 50-fold with a Glu medium were prepared.
A solution in which each of Compounds (1) to (3) was dissolved in dimethylsulfoxide (DMSO) to the concentration of 6 ppm, a solution in which each of Compounds (4) and (5) was dissolved in dimethylsulfoxide (DMSO) to the concentration of 2000 ppm, and a solution in which Compounds (6) and (7) was dissolved in dimethylsulfoxide (DMSO) to the concentration of 20 ppm were prepared, and two microplates were prepared in which each 1.0 μL per well of the Compound solution and DMSO as a control were dispensed. In one microplate among them, each 100 μL of cell suspensions of the transformed budding yeast AH22-StOS1 which had been prepared by dilution as described above was dispensed, and cultured by allowing to stand at 30° C. for 28 hours. In another microplate, each 100 μL of cell suspensions of the control yeast AH22 strain which had been prepared by dilution as described above was dispensed, and cultured by allowing to stand at 30° C. for 24.5 hours. After culturing, the absorbance at 600 nm of each well was measured with a microplate reader.
A degree of growth of the transformed budding yeast is expressed as a relative value in percentage, letting the absorbance at 600 nm at the concentration of the Compound of 0 ppm to be 100. It was confirmed that an inhibiting degree of growth of the transformed budding yeast TM182-StOS1 by each test substance was grater than an inhibiting degree of growth of the transformed budding yeast AH22-StOS1 by each test substance, and the transformed budding yeast TM182-StOS1 was a transformed cell with the enhanced sensitivity to an antifungal compound as compared with the transformed budding yeast AH22-StOS1.

CC12CC1(C)C(=O)N(c1cc(Cl)cc(Cl)c1)C2=O (stereo not shown) [Compound (1), Procymidone]
Degree of growth of budding yeast (%) AH22-HIK1 Glu-Leu medium ([1]; final concentration 2.0 ppm): 89% | Degree of growth of budding yeast (%) TM182-HIK1 Gal-Ura-Leu medium ([2]; final concentration 2.0 ppm): 100% | Degree of growth of budding yeast (%) TM182-HIK1 Glu-Ura-Leu medium ([2]; final concentration 2.0 ppm): 62% | Degree of growth of budding yeast AH22 Glu medium (AH22 strain; final concentration 0.6 ppm): 99%

O=[N+]([O-])c1c(Cl)c(Cl)c(Cl)c(Cl)c1Cl [Compound (4), Quintozene]
Degree of growth of budding yeast (%) AH22-HIK1 Glu-Leu medium ([1]; final concentration 6.0 ppm): 92% | Degree of growth of budding yeast (%) TM182-HIK1 Gal-Ura-Leu medium ([2]; final concentration 6.0 ppm): 97% | Degree of growth of budding yeast (%) TM182-HIK1 Glu-Ura-Leu medium ([2]; final concentration 6.0 ppm): 63% | Degree of growth of budding yeast AH22 Glu medium (AH22 strain; final concentration 20 ppm): 96%

CC(C)NC(=O)N1CC(=O)N(c2cc(Cl)cc(Cl)c2)C1=O [Compound (2), Iprodione]
Degree of growth of budding yeast (%) AH22-HIK1 Glu-Leu medium ([1]; final concentration 2.0 ppm): 84% | Degree of growth of budding yeast (%) TM182-HIK1 Gal-Ura-Leu medium ([2]; final concentration 2.0 ppm): 94% | Degree of growth of budding yeast (%) TM182-HIK1 Glu-Ura-Leu medium ([2]; final concentration 2.0 ppm): 79% | Degree of growth of budding yeast AH22 Glu medium (AH22 strain; final concentration 0.6 ppm): 94%

COP(=S)(OC)Oc1c(Cl)cc(C)cc1Cl [Compound (5), Tolclofos-methyl]
Degree of growth of budding yeast (%) AH22-HIK1 Glu-Leu medium ([1]; final concentration 6.0 ppm): 99% | Degree of growth of budding yeast (%) TM182-HIK1 Gal-Ura-Leu medium ([2]; final concentration 6.0 ppm): 106% | Degree of growth of budding yeast (%) TM182-HIK1 Glu-Ura-Leu medium ([2]; final concentration 6.0 ppm): 22% | Degree of growth of budding yeast AH22 Glu medium (AH22 strain; final concentration 20 ppm): 80%

N#Cc1c[nH]cc1-c1cccc2c1OC(F)(F)O2 [Compound (6), Fludioxonil]
Degree of growth of budding yeast (%) AH22-HIK1 Glu-Leu medium ([1]; final concentration 0.2 ppm): 98% | Degree of growth of budding yeast (%) TM182-HIK1 Gal-Ura-Leu medium ([2]; final concentration 0.2 ppm): 104% | Degree of growth of budding yeast (%) TM182-HIK1 Glu-Ura-Leu medium ([2]; final concentration 0.2 ppm): 11% | Degree of growth of budding yeast AH22 Glu medium (AH22 strain; final concentration 0.2 ppm): 92%

N#Cc1c[nH]cc1-c1cccc(Cl)c1Cl [Compound (7), Fenpiclonil]
Degree of growth of budding yeast (%) AH22-HIK1 Glu-Leu medium ([1]; final concentration 0.2 ppm): 102% | Degree of growth of budding yeast (%) TM182-HIK1 Gal-Ura-Leu medium ([2]; final concentration 0.2 ppm): 87% | Degree of growth of budding yeast (%) TM182-HIK1 Glu-Ura-Leu medium ([2]; final concentration 0.2 ppm): 9% | Degree of growth of budding yeast AH22 Glu medium (AH22 strain; final concentration 0.2 ppm): 91%

C=CC1(C)OC(=O)N(c2cc(Cl)cc(Cl)c2)C1=O (stereo not shown) [Compound (3), Vinclozolin]
Degree of growth of budding yeast (%) AH22-HIK1 Glu-Leu medium ([1]; final concentration 2.0 ppm): 104% | Degree of growth of budding yeast (%) TM182-HIK1 Gal-Ura-Leu medium ([2]; final concentration 2.0 ppm): 100% | Degree of growth of budding yeast (%) TM182-HIK1 Glu-Ura-Leu medium ([2]; final concentration 2.0 ppm): 30% | Degree of growth of budding yeast AH22 Glu medium (AH22 strain; final concentration 0.6 ppm): 96%
